Laboratory results as given in PubChem BioAssay AID248 (DTP/NCI, 2004).
“And” between values parts separate entries of the source, which are not always exact repeats. Equal entries are not always repeated. Toxic doses and inconclusive results are not listed. No stated cut-off is given here; in the data, active means T/C of 150% or more; inactive means T/C below 125%.

Tested on: L1210 leukemia ip in BDF1 mice, survival T/C
Experiment: NCI In Vivo Anticancer Drug Screen. Data for tumor model L1210 Leukemia (intraperitoneal) in B6D2F1 (BDF1) mice
Settings: higher = longer survival
Method in brief: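 Survival endpoint. Drug-treated group vs vehicle group, expressed as T divided by C. Tumor passaged by transplantation.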

[1] = endpoint: mean survival time, dose: 100.0 mg/kg/injection, schedule: Q01DX001 (ip), vehicle: saline
[2] = endpoint: mean survival time, dose: 200.0 mg/kg/injection, schedule: Q01DX001 (ip), vehicle: saline
[3] = endpoint: mean survival time, dose: 400.0 mg/kg/injection, schedule: Q01DX001 (ip), vehicle: saline
[4] = endpoint: mean survival time, dose: 100.0 mg/kg/injection, schedule: Q04DX003 (ip), vehicle: Klucel (hydroxypropylcellulose) (HPC)
[5] = endpoint: mean survival time, dose: 200.0 mg/kg/injection, schedule: Q04DX003 (ip), vehicle: Klucel (hydroxypropylcellulose) (HPC)
[6] = endpoint: mean survival time, dose: 400.0 mg/kg/injection, schedule: Q04DX003 (ip), vehicle: Klucel (hydroxypropylcellulose) (HPC)
[7] = endpoint: mean survival time, dose: 50.0 mg/kg/injection, schedule: Q01DX001 (ip), vehicle: saline
[8] = endpoint: mean survival time, dose: 50.0 mg/kg/injection, schedule: Q01DX009 (ip), vehicle: saline
[9] = endpoint: mean survival time, dose: 100.0 mg/kg/injection, schedule: Q01DX009 (ip), vehicle: saline
[10] = endpoint: mean survival time, dose: 200.0 mg/kg/injection, schedule: Q01DX009 (ip), vehicle: saline
[11] = endpoint: mean survival time, dose: 50.0 mg/kg/injection, schedule: Q01DX009 (ip), vehicle: Klucel (hydroxypropylcellulose) (HPC)
[12] = endpoint: mean survival time, dose: 100.0 mg/kg/injection, schedule: Q01DX009 (ip), vehicle: Klucel (hydroxypropylcellulose) (HPC)
[13] = endpoint: mean survival time, dose: 200.0 mg/kg/injection, schedule: Q01DX009 (ip), vehicle: Klucel (hydroxypropylcellulose) (HPC)
[14] = endpoint: mean survival time, dose: 100.0 mg/kg/injection, schedule: Q01DX001 (ip), vehicle: carboxymethylcellulose (CMC)
[15] = endpoint: mean survival time, dose: 200.0 mg/kg/injection, schedule: Q01DX001 (ip), vehicle: carboxymethylcellulose (CMC)
[16] = endpoint: mean survival time, dose: 400.0 mg/kg/injection, schedule: Q01DX001 (ip), vehicle: carboxymethylcellulose (CMC)

Measured: T/C

CS(C)=O
inactive: [1] 112 % of control | [2] 102 % of control | [3] 106 % of control | endpoint: mean survival time, dose: 1500.0 mg/kg/injection, schedule: Q01DX Z (ip), vehicle: other 98 % of control | endpoint: mean survival time, dose: 1.6 grams/kg/injection, schedule: Q03HX008 (ip), vehicle: saline 97 % of control | endpoint: mean survival time, dose: 1.6 grams/kg/injection, schedule: Q03HX016 (ip), vehicle: saline 101 % of control | endpoint: mean survival time, dose: 1.6 grams/kg/injection, schedule: Q03HX024 (ip), vehicle: saline 105 % of control | endpoint: mean survival time, dose: 3000.0 mg/kg/injection, schedule: Q01DX Z (ip), vehicle: other 98 % of control | endpoint: mean survival time, dose: 3.1 grams/kg/injection, schedule: Q01DX001 (ip), vehicle: saline 104 % of control | endpoint: mean survival time, dose: 3.1 grams/kg/injection, schedule: Q01DX009 (ip), vehicle: saline 100 % of control | endpoint: mean survival time, dose: 3.1 grams/kg/injection, schedule: Q03HX008 (ip), vehicle: saline 91 % of control | endpoint: mean survival time, dose: 3.1 grams/kg/injection, schedule: Q03HX024 (ip), vehicle: saline 110 % of control | endpoint: mean survival time, dose: 3.1 grams/kg/injection, schedule: Q04DX003 (ip), vehicle: saline 95 % of control | endpoint: mean survival time, dose: 3.1 grams/kg/injection, schedule: Q08DX002 (ip), vehicle: saline 98 % of control | endpoint: mean survival time, dose: 6.3 grams/kg/injection, schedule: Q01DX001 (ip), vehicle: saline 100 % of control | endpoint: mean survival time, dose: 6.3 grams/kg/injection, schedule: Q01DX009 (ip), vehicle: saline 97 % of control | endpoint: mean survival time, dose: 6.3 grams/kg/injection, schedule: Q04DX003 (ip), vehicle: saline 95 % of control | endpoint: mean survival time, dose: 6.3 grams/kg/injection, schedule: Q08DX002 (ip), vehicle: saline 96 % of control | endpoint: median survival time, dose: 0.5 mg/kg/injection, schedule: Q#C X009 (adlb), vehicle: water 106 % of control | endpoint: median survival time, dose: 1.0 mg/kg/injection, schedule: Q01DX019 (adlb), vehicle: water 92 % of control | endpoint: median survival time, dose: 1.0 mg/kg/injection, schedule: Q#C X009 (adlb), vehicle: water 102 % of control | endpoint: median survival time, dose: 2.0 mg/kg/injection, schedule: Q01DX019 (adlb), vehicle: water 97 % of control | endpoint: median survival time, dose: 2.0 mg/kg/injection, schedule: Q#C X009 (adlb), vehicle: water 107 % of control | endpoint: median survival time, dose: 4.0 mg/kg/injection, schedule: Q01DX019 (adlb), vehicle: water 99 % of control | endpoint: median survival time, dose: 4.0 mg/kg/injection, schedule: Q#C X009 (adlb), vehicle: water 101 % of control | endpoint: median survival time, dose: 8.0 mg/kg/injection, schedule: Q#C X009 (adlb), vehicle: water 103 % of control

CN(CCO)CC1C(c2ccccc2)C1c1ccccc1 (stereo not drawn)
inactive: endpoint: mean survival time, dose: 12.5 mg/kg/injection, schedule: Q04DX002 (ip), vehicle: Klucel (hydroxypropylcellulose) (HPC) 97 % of control | endpoint: mean survival time, dose: 25.0 mg/kg/injection, schedule: Q04DX002 (ip), vehicle: Klucel (hydroxypropylcellulose) (HPC) 94 % of control | endpoint: mean survival time, dose: 50.0 mg/kg/injection, schedule: Q04DX002 (ip), vehicle: Klucel (hydroxypropylcellulose) (HPC) 90 % of control

CC1CCC(NCCOC(=O)c2ccc(N)cc2)CC1 (stereo not drawn)
inactive: endpoint: mean survival time, dose: 75.0 mg/kg/injection, schedule: Q01DX001 (ip), vehicle: other 94 % of control | endpoint: mean survival time, dose: 150.0 mg/kg/injection, schedule: Q01DX001 (ip), vehicle: other 108 % of control

COc1ccc(C2OC23CCCc2ccccc2C3=O)cc1 (stereo not drawn)
inactive: [4] 95 % of control | [5] 97 % of control | [6] 89 % of control

Cc1ccc(C2CCCN(C)O2)cc1 (stereo not drawn)
inactive: [1] 102 % of control | [2] 101 % of control | [3] 93 % of control

O=C(Cc1cc2c(cc1[N+](=O)[O-])OCO2)c1c[nH]c2ccccc12
inactive: [7] 98 % of control | [1] 98 % of control | [2] 95 % of control | [3] 101 % of control

C=[CH][Sn]([c]1ccccc1)([c]1ccccc1)[c]1ccccc1
inactive: [8] 92 % of control and 104 % of control and 109 % of control | [9] 106 % of control and 114 % of control and 89 % of control | [10] 96 % of control and 101 % of control (2×)

Clc1ccc(/C=N\N2CCCCCC2)cc1
inactive: endpoint: mean survival time, dose: 100.0 mg/kg/injection, schedule: Q01DX001 (ip), vehicle: Klucel (hydroxypropylcellulose) (HPC) 105 % of control | endpoint: mean survival time, dose: 200.0 mg/kg/injection, schedule: Q01DX001 (ip), vehicle: Klucel (hydroxypropylcellulose) (HPC) 100 % of control | endpoint: mean survival time, dose: 400.0 mg/kg/injection, schedule: Q01DX001 (ip), vehicle: Klucel (hydroxypropylcellulose) (HPC) 98 % of control

O=S(=O)(Cl)c1ccccc1Cl
inactive: endpoint: mean survival time, dose: 50.0 mg/kg/injection, schedule: Q01DX001 (ip), vehicle: Klucel (hydroxypropylcellulose) (HPC) 101 % of control

NC(=O)C(N)CSCc1ccccc1 (stereo not drawn)
inactive: [11] 95 % of control | [12] 95 % of control | [9] 89 % of control | [13] 100 % of control | [10] 91 % of control | endpoint: mean survival time, dose: 400.0 mg/kg/injection, schedule: Q01DX009 (ip), vehicle: saline 91 % of control

Cn1cnc([N+](=O)[O-])c1C(N)=O
inactive: endpoint: mean survival time, dose: 100.0 mg/kg/injection, schedule: Q04DX002 (ip), vehicle: Klucel (hydroxypropylcellulose) (HPC) 88 % of control | endpoint: mean survival time, dose: 200.0 mg/kg/injection, schedule: Q04DX002 (ip), vehicle: Klucel (hydroxypropylcellulose) (HPC) 95 % of control | endpoint: mean survival time, dose: 400.0 mg/kg/injection, schedule: Q04DX002 (ip), vehicle: Klucel (hydroxypropylcellulose) (HPC) 88 % of control

O=C1c2ccccc2-c2ccc(Cl)cc21
inactive: [14] 96 % of control | [15] 96 % of control | [16] 96 % of control

O=C(N/N=C\c1cc(=O)[nH]c(=O)[nH]1)c1ccncc1
inactive: [7] 90 % of control | [1] 95 % of control | [2] 95 % of control

Cn1c(-c2ccccc2)nc2c(N)ncnc21
inactive: endpoint: mean survival time, dose: 25.0 mg/kg/injection, schedule: Q01DX001 (ip), vehicle: saline with Tween-80 95 % of control | endpoint: mean survival time, dose: 50.0 mg/kg/injection, schedule: Q01DX001 (ip), vehicle: saline with Tween-80 90 % of control | endpoint: mean survival time, dose: 100.0 mg/kg/injection, schedule: Q01DX001 (ip), vehicle: saline with Tween-80 90 % of control

CCCCCCC(=O)N(CC(C)C)CC(C)C
inactive: [14] 102 % of control | endpoint: mean survival time, dose: 100.0 mg/kg/injection, schedule: Q01DX009 (ip), vehicle: carboxymethylcellulose (CMC) 93 % of control and 106 % of control | endpoint: mean survival time, dose: 100.0 mg/kg/injection, schedule: Q04DX002 (ip), vehicle: carboxymethylcellulose (CMC) 97 % of control | endpoint: mean survival time, dose: 100.0 mg/kg/injection, schedule: Q04DX003 (ip), vehicle: carboxymethylcellulose (CMC) 109 % of control | [15] 100 % of control | endpoint: mean survival time, dose: 200.0 mg/kg/injection, schedule: Q01DX009 (ip), vehicle: carboxymethylcellulose (CMC) 104 % of control and 90 % of control | endpoint: mean survival time, dose: 200.0 mg/kg/injection, schedule: Q04DX002 (ip), vehicle: carboxymethylcellulose (CMC) 102 % of control | endpoint: mean survival time, dose: 200.0 mg/kg/injection, schedule: Q04DX003 (ip), vehicle: carboxymethylcellulose (CMC) 102 % of control | [16] 90 % of control | endpoint: mean survival time, dose: 400.0 mg/kg/injection, schedule: Q04DX002 (ip), vehicle: carboxymethylcellulose (CMC) 100 % of control | endpoint: mean survival time, dose: 400.0 mg/kg/injection, schedule: Q04DX003 (ip), vehicle: carboxymethylcellulose (CMC) 100 % of control

Cc1ccc(NP(Br)(c2ccccc2)(c2ccccc2)c2ccccc2)cc1
inactive: endpoint: mean survival time, dose: 75.0 mg/kg/injection, schedule: Q01DX001 (ip), vehicle: acetone 95 % of control

NC(=S)Nc1ccc(C23CCC(CC2)CC3)cc1
inactive: [8] 105 % of control | [9] 105 % of control | [10] 102 % of control

COc1cc2c(cc1OC)C(=O)C(c1ccc3c(c1)OCO3)CC2 (stereo not drawn)
inactive: endpoint: mean survival time, dose: 100.0 mg/kg/injection, schedule: Q01DX009 (ip), vehicle: water 102 % of control | endpoint: mean survival time, dose: 100.0 mg/kg/injection, schedule: Q04DX003 (ip), vehicle: water 94 % of control | endpoint: mean survival time, dose: 200.0 mg/kg/injection, schedule: Q01DX009 (ip), vehicle: water 91 % of control | endpoint: mean survival time, dose: 200.0 mg/kg/injection, schedule: Q04DX003 (ip), vehicle: water 92 % of control | endpoint: mean survival time, dose: 400.0 mg/kg/injection, schedule: Q01DX009 (ip), vehicle: water 101 % of control | endpoint: mean survival time, dose: 400.0 mg/kg/injection, schedule: Q04DX003 (ip), vehicle: water 94 % of control

Nc1ccc(S(N)(=O)=O)cc1
inactive: [4] 114 % of control | [5] 95 % of control | [6] 92 % of control

CCOC(=O)c1nnc(-c2ccccc2)[nH]c1=O
inactive: [11] 92 % of control | [12] 103 % of control | [13] 103 % of control
